Holding throughout (type): functional
The subject of one assay is A549. As to the kind of experiment: Cytotoxicity against human A549 cells after 5 days by MTT assay. The note with it: A549, 120 h, read-out: ED50 (the source's name).
The subject of a further assay is HCT-8. As to the kind of experiment: Cytotoxicity against human HCT8 cells after 5 days by MTT assay. The note with it: HCT-8, 120 h, read-out: ED50 (the source's name).
A further assay deals with KB. As to the kind of experiment: Cytotoxicity against human KB cells after 5 days by MTT assay. Conditions: 120 h, read-out: ED50 (the source's name).

≈ marks a conversion by molar mass, not a printed value.

`CC(C)=CCc1cc(-c2oc3c(CC=C(C)C)c(O)cc(O)c3c(=O)c2O)cc(O)c1O` [BROUSSONOL D]: the EC50 with A549 is greater than 10 µg/mL; in the assay with HCT-8, greater than 10 µg/mL; in the assay on KB, 4.15 µg/mL (≈ 9.46 µM).
As to `C=CC(C)(C)c1c(O)cc(O)c2c(=O)c(O)c(-c3cc(O)c4c(c3)C=CC(C)(C)O4)oc12` [BROUSSONOL A], the EC50 was 8.74 µg/mL (≈ 20 µM) in the assay with A549, 9.1 µg/mL (≈ 20.8 µM) with HCT-8 and greater than 10 µg/mL with KB.
The matching figures for `COc1cc(O)ccc1CCCc1cc(O)c(O)c(CC=C(C)C)c1CC=C(C)C` [KAZINOL J]: greater than 10 µg/mL, greater than 10 µg/mL and greater than 10 µg/mL.
In the same order, the values of `CC(C)=CCc1c(CCCc2ccc(O)cc2O)cc(O)c(O)c1CC=C(C)C` [KAZINOL F] are greater than 10 µg/mL, greater than 10 µg/mL and greater than 10 µg/mL.
With `CC(C)=CCc1cc(-c2oc3c4c(cc(O)c3c(=O)c2O)OC(C)C4(C)C)cc(O)c1O` (stereo unspecified) [BROUSSONOL C], the EC50 is 7.77 µg/mL (≈ 17.7 µM) in the assay on A549, 9.63 µg/mL (≈ 22 µM) in the assay with HCT-8 and greater than 10 µg/mL with KB.
In the same order, the values of `CC(C)=CCc1cc(-c2oc3cc(O)c(CC=C(C)C)c(O)c3c(=O)c2O)cc(O)c1O` [BROUSSONOL E] are greater than 10 µg/mL, greater than 10 µg/mL and greater than 10 µg/mL.
The matching figures for `CC1Oc2cc(O)c3c(=O)c(O)c(-c4cc(O)c5c(c4)C=CC(C)(C)O5)oc3c2C1(C)C` (stereo unspecified) [BROUSSONOL B]: 5.52 µg/mL (≈ 12.6 µM), 8.8 µg/mL (≈ 20.2 µM) and greater than 10 µg/mL.

Source of the values: ChEMBL document CHEMBL1156342, “Five new diprenylated flavonols from the leaves of Broussonetia kazinoki” (2001).
